Laboratory results published in patent US6541506B1, “Antifungal enediynes” (Phytera Incorporated, priority 1999, dated 2003).
Values after ≈ are worked out from the molar mass of the structure shown. Values joined by “and” are separate entries in the source; they are usually repeats but may differ in a detail not shown here. Equal values may be shown once.

Legend:
[1] = system: C. albicans DSY1024; test: Candida growth inhibition (XTT), C. albicans DSY1024; assay type: cell-based
Method: (§1) There are numerous assays that can be used to measure the inhibition of growth of a fungus such as Candida. In one example, cultures of Candida, e.g., C. albicans strains DSY1024 and SC5314, C. krusei ATCC 6258, and C. glabrata ATCC 90030, are subcultured from cryopreserved stocks onto Sabouraud's dextrose agar plates. Blastoconidia are suspended into RPMI-MOPS medium and inoculated (500 cfu/well) into 96-well plates containing test compounds in a final volume of 100 μL/well. After 22 hours at 35° C., 25 μL of XTT (2,3-bis(2-methoxy-4-nitro-5-sulfophenyl)-5-(phenylamino)carbonyl]-2H-tetrazolium hydroxide), (100 μg/mL) with PMS (phenazine methyl sulfate, 5 μM) are added to each well, followed by 2 hours of shaking. Growth is assessed spectrophotometrically by measuring the appearance of soluble formazan stain at 450 nm using an Emax microplate reader. Validity of the assay is confirmed by determination of the C. albicans minimum inhibitory concentration (MIC) for known antifungal agents such as amphotericin B, 5-flucytosine, fluconazole, nikkomycin Z, and polyoxin D.
LP416E8 (AC-05081-T4-3) was an organic extract of a manipulated plant cell culture from A. corsicum.

[2] = system: Candida; test: Anti-Candida activity by backbone length; assay type: cell-based; conditions: X=7
Source text: The variable X denotes the length of a saturated carbon backbone. The antifungal activity of the claimed compounds changes in part based on the length of this backbone. […] Preferably, X is an integer between 5 and 7, inclusive, although longer carbon chains (X=8-10) may preserve or increase antifungal activity.

[3] = system: C. albicans SC5314; test: Candida growth inhibition (XTT), C. albicans SC5314; assay type: cell-based
Method: as §1

[4] = system: T. rubrum; test: Dermatophyte growth inhibition (microdilution, NCCLS M27A), T. rubrum; assay type: cell-based, Trichophyton rubrum; conditions: T. rubrum, four days at 35° C., visual inspection
Method: (§2) The compounds of the invention are also effective against dermatophytes. Testing was performed using a microdilution method based on the NCCLS M27A antifungal protocol. Compounds to be tested were prepared in DMSO and diluted to the appropriate concentration in RPMI 1640 medium (the dermatophyte growth medium). An inoculum of each test organism was prepared from oatmeal agar plates to contain 0.5-2.5×10^3 conidia/mL. One hundred microliters of the inoculum was added to each well of a 96-well microtiter plate containing 4 μL of a test compound and 96 μL of RPMI 1640. Terbinafine (sold under the brand name Lamisil®) was used as a positive control.

[5] = system: T. mentagrophytes; test: Dermatophyte growth inhibition (microdilution, NCCLS M27A), T. mentagrophytes; assay type: cell-based; conditions: T. mentagrophytes, four days at 35° C., visual inspection
Method: as §2

[6] = system: T. tonsurans; test: Dermatophyte growth inhibition (microdilution, NCCLS M27A), T. tonsurans; assay type: cell-based; conditions: T. tonsurans, four days at 35° C., visual inspection
Method: as §2

[7] = system: M. canis; test: Dermatophyte growth inhibition (microdilution, NCCLS M27A), M. canis; assay type: cell-based, Microsporum canis; conditions: M. canis, four days at 35° C., visual inspection
Method: as §2

[8] = system: C. albicans 90028; test: Candida growth inhibition, C. albicans 90028; assay type: cell-based
Method: as §1

[9] = system: C. albicans A26; test: Candida growth inhibition, C. albicans A26; assay type: cell-based
Method: as §1

[10] = system: C. albicans #64; test: Candida growth inhibition, C. albicans #64; assay type: cell-based
Method: as §1
(§3) Using the cell growth assay described herein, Compound 1 was tested for its ability to inhibit growth of C. albicans, C. kefyr, C. tropicalis, C. krusei, and C. glabrata.

[11] = system: C. albicans UTR-14; test: Candida growth inhibition, C. albicans UTR-14; assay type: cell-based; conditions: C. albicans UTR-14, fluconazole-resistant strain
Method: as §1, §3

[12] = system: C. albicans 93-1226; test: Candida growth inhibition, C. albicans 93-1226; assay type: cell-based; conditions: C. albicans 93-1226, fluconazole-resistant strain
Method: as §1, §3

[13] = system: C. keyfer 46764; test: Candida growth inhibition, C. keyfer 46764; assay type: cell-based, C. kefyr
Method: as §1, §3

[14] = system: C. tropicalis 623-20; test: Candida growth inhibition, C. tropicalis 623-20; assay type: cell-based
Method: as §1, §3

[15] = system: C. tropicalis 750; test: Candida growth inhibition, C. tropicalis 750; assay type: cell-based
Method: as §1, §3

[16] = system: C. tropicalis 97-1037; test: Candida growth inhibition, C. tropicalis 97-1037; assay type: cell-based
Method: as §1, §3

[17] = system: C. krusei 6258; test: Candida growth inhibition, C. krusei 6258; assay type: cell-based
Method: as §1, §3

[18] = system: C. krusei 97-1037; test: Candida growth inhibition, C. krusei 97-1037; assay type: cell-based
Method: as §1, §3

[19] = system: C. glabrata 90030; test: Candida growth inhibition, C. glabrata 90030; assay type: cell-based
Method: as §1, §3

[20] = system: C. glabrata 95-2421; test: Candida growth inhibition, C. glabrata 95-2421; assay type: cell-based
Method: as §1, §3

[21] = system: C. glabrata 95-2425; test: Candida growth inhibition, C. glabrata 95-2425; assay type: cell-based
Method: as §1, §3

[22] = system: S. cerevisiae AD1-9; test: Anti-cell growth activity, S. cerevisiae AD1-9; assay type: cell-based
Method: (§4) The anti-cell growth activity of Compound 1 on other fungal strains, as well as bacterial strains and cultured mammalian cells, was also tested (Table 3). […] Bacterial cell growth and mammalian cell growth was inhibited at substantially higher concentrations of Compound 1.

[23] = system: S. cerevisiae 2229-5C; test: Anti-cell growth activity, S. cerevisiae 2229-5C; assay type: cell-based
Method: as §4

[24] = system: A. fumigatus 8001; test: Anti-cell growth activity, A. fumigatus 8001; assay type: cell-based, Aspergillus fumigatus
Method: as §4

[25] = system: S. aureus 29213; test: Anti-cell growth activity, S. aureus 29213; assay type: cell-based
Method: as §4

[26] = system: E. faecalis 29212; test: Anti-cell growth activity, E. faecalis 29212; assay type: cell-based
Method: as §4

[27] = system: E. coli 700; test: Anti-cell growth activity, E. coli 700; assay type: cell-based
Method: as §4

[28] = system: HFF cells; test: Anti-cell growth activity, cultured mammalian HFF cells; assay type: cell-based
Method: as §4

[29] = system: C. albicans, C. kefyr, C. tropicalis, C. krusei, and C. glabrata; test: Candida growth inhibition, all tested strains (summary); assay type: cell-based, Candida spp.; conditions: range over all tested strains incl. fluconazole-resistant 93-1226 and UTR-14
Method: as §1, §3

[30] = system: other fungal strains; test: Anti-cell growth activity on other fungal strains (summary); assay type: cell-based; conditions: range over other fungal strains of Table 3
Method: as §4

O=C(O)CCCCCCC/C=C\C#CC#Cc1ccco1 [Compound 5]
IC50 ([1]; C. albicans DSY1024 (Table 4)): 0.0039 µg/mL (≈ 0.0137 µM) | MIC ([1]; C. albicans DSY1024 (Table 4)): 0.0078 µg/mL (≈ 0.0274 µM) | anti-Candida activity (ranking by backbone length X) [2]: greatest anti-Candida activity

COC(=O)CCCCCCC/C=C\C#CC#Cc1ccco1 [Compound 7]
IC50 ([1]; C. albicans DSY1024 (Table 4)): 0.19 µg/mL (≈ 0.637 µM) | MIC ([1]; C. albicans DSY1024 (Table 4)): 0.25 µg/mL (≈ 0.838 µM) | inhibition of growth of strain SC5314 [3]: able to inhibit growth | IC50 ([3]; C. albicans SC5314 (Table 4)): 0.221 µg/mL (≈ 0.741 µM) | MIC ([3]; C. albicans SC5314 (Table 4)): 0.25 µg/mL (≈ 0.838 µM) | MIC [4]: 0.125 µg/mL (≈ 0.419 µM) | MIC [5]: 0.125 µg/mL (≈ 0.419 µM) | MIC [6]: 0.125 µg/mL (≈ 0.419 µM) | MIC [7]: 0.125 µg/mL (≈ 0.419 µM) | anti-Candida activity (ranking by backbone length X) [2]: greatest anti-Candida activity

O=C(O)CCCCCCC/C=C/C#CC#Cc1ccco1 [Compound 1]
MIC ([1]; C. albicans DSY1024): 0.0025 µg/mL (≈ 0.00879 µM) | MIC ([3]; C. albicans SC5314): 0.000625 µg/mL and 0.00125 µg/mL | IC50 [8]: 0.00122 µg/mL (≈ 0.00429 µM) | IC50 [9]: 0.0011 µg/mL (≈ 0.00387 µM) | IC50 [10]: 0.00145 µg/mL (≈ 0.0051 µM) | MIC [10]: 0.005 µg/mL (≈ 0.0176 µM) | IC50 [11]: 0.00364 µg/mL (≈ 0.0128 µM) | MIC [11]: 0.0025 µg/mL (≈ 0.00879 µM) | IC50 [12]: 0.0021 µg/mL (≈ 0.00739 µM) | MIC [12]: 0.0025 µg/mL (≈ 0.00879 µM) | MIC [13]: 0.01 µg/mL (≈ 0.0352 µM) | IC50 [14]: 0.00296 µg/mL (≈ 0.0104 µM) | MIC [14]: 0.005 µg/mL (≈ 0.0176 µM) | IC50 [15]: 0.00467 µg/mL (≈ 0.0164 µM) | MIC [15]: 0.005 µg/mL (≈ 0.0176 µM) | IC50 [16]: 0.00368 µg/mL (≈ 0.0129 µM) | MIC [16]: 0.005 µg/mL (≈ 0.0176 µM) | IC50 [17]: 0.0419 µg/mL (≈ 0.147 µM) | MIC [17]: 0.05 µg/mL (≈ 0.176 µM) | IC50 [18]: 0.0261 µg/mL (≈ 0.0918 µM) | MIC [18]: 0.05 µg/mL (≈ 0.176 µM) | IC50 [19]: 0.0125 to 0.025 µg/mL | MIC [19]: 0.005 µg/mL (≈ 0.0176 µM) | IC50 [20]: 0.00825 µg/mL (≈ 0.029 µM) | MIC [20]: 0.0125 µg/mL (≈ 0.044 µM) | IC50 [21]: 0.00313 to 0.00625 µg/mL | MIC [21]: 0.0125 µg/mL (≈ 0.044 µM) | IC50 [22]: 0.18 µg/mL (≈ 0.633 µM) | MIC [22]: 0.25 µg/mL (≈ 0.879 µM) | IC50 [23]: 0.5 to 1.0 µg/mL | MIC [23]: 1 µg/mL (≈ 3.52 µM) | IC50 [24]: 50 to 100 µg/mL | MIC [24]: 200 µg/mL (≈ 703 µM) | IC50 [25]: 31.6 µg/mL (≈ 111 µM) | MIC [25]: 50 µg/mL (≈ 176 µM) | IC50 [26]: 7.5 µg/mL (≈ 26.4 µM) | MIC [26]: 12.5 µg/mL (≈ 44 µM) | MIC [27]: >200 µg/mL | IC50 [28]: 12 µg/mL (≈ 42.2 µM) | MIC [4]: 0.001 µg/mL (≈ 0.00352 µM) | MIC [5]: 0.001 µg/mL (≈ 0.00352 µM) | MIC [6]: 0.001 µg/mL (≈ 0.00352 µM) | MIC [7]: 0.001 µg/mL (≈ 0.00352 µM) | IC50 values, all tested Candida strains [29]: 0.00035 to 0.042 µg/mL | IC50 values, fungal growth, lower end of range [30]: ≥ 0.18 µg/mL | anti-Candida activity (ranking by backbone length X) [2]: greatest anti-Candida activity

O=C(O)CCCCCCC=CC#CC#Cc1ccco1 [Compound 3]
IC50 ([1]; C. albicans DSY1024 (Table 4)): 0.503 µg/mL (≈ 1.86 µM) | MIC ([1]; C. albicans DSY1024 (Table 4)): 1 µg/mL (≈ 3.7 µM) | MIC [4]: 8.0 µg/mL (≈ 29.6 µM) | MIC [5]: 2.0 µg/mL (≈ 7.4 µM) | MIC [6]: 2.0 µg/mL (≈ 7.4 µM) | MIC [7]: 2.0 µg/mL (≈ 7.4 µM)
